Patent US20240101584A1, “TARGETED DELIVERY OF 1,2,4,5 TETRAOXANE COMPOUNDS AND THEIR USES” (Westlake University, priority 2021, published 2024)
Like-named read-outs stand apart in the source and are kept apart here.

Assays:
[1] = test system: cytosolic hydroxyl radical in MDA-MB-231 cells; assay: HKOH-1r hydroxyl radical detection in MDA-MB-231 cells; assay type: cell-based; settings: about 5.5 h after addition
Method: FIG. 10 is a bar graph showing the relative mean fluorescence intensities of cells with HKOH-1r measured from the confocal images of MDA-MB-231 cells after treatment with compounds 48 and 37b, respectively. Scale bars represent 50 μm. Data are mean±s.e.m., n=20 cells for HKOH-1. Statistical significance was determined as ***P≤0.01 by Student's t test.
Reactive oxygen species is associated with the event of ferroptotic cell death. Oxidative stress induced by 48 and 37b can be indicated by the fluorogenic probe, HKOH-1r, that emits at 520 nm upon oxidation by cytosolic hydroxyl radical. By using HKOH-1r, it is possible to specify the type of ROS that tetraoxanes can produce in MDA-MB-231 cells.
Confocal images of MDA-MB-231 cells after tetraoxane treatment were captured and the relative mean fluorescence intensities of cells with HKOH-1r were quantified (FIG. 10). […] This phenomenon is consistent with one of the features of ferroptosis.

NIH3T3 = assay: CellTiter-Glo viability, NIH3T3 cells (Table 14); assay type: cell-based; settings: Mus musculus, 48 hrs, n = 3
T47D cells = assay: MTT viability assay, T47D cells; assay type: cell-based; settings: for IC50: Homo sapiens, T47D
Method: (§1) The anticancer activities of the exemplary compounds listed in Example 1 were tested against human cervix Hela cells, mammary breast cancer MDA-MB-231 cells, human hepatocellular HepG2 cells, human colorectal HCT116 cells, mammary ductal T47D cells, non-cancerous NIH3T3 cells, dog's kidney MDCK cells, and mouse brain bEnd.3 cells, respectively.

HepG2 cells = assay: MTT viability assay, HepG2 cells; assay type: cell-based, human
Method: as §1

[2] = test system: HEYA8 CSC xenograft tumors; assay: Mouse xenograft ovarian tumors (HEYA8 CSC); assay type: in vivo; settings: for tolerability of regimens in tested animals / abnormal behavior or weight loss during treatment period: HEYA8 CSC xenograft mice; for abnormal behavior or weight loss during treatment period: entire treatment period
Method: FIG. 7A is a graph showing the tumor volume of xenograft tumors versus time after s.c. injection of DMSO, PTX, compound 37b, or compound 48. Nude mice were injected s.c. with HEYA8 CSC cells (10^6) and randomly allocated to one of the six treatment groups (n=4): (i) DMSO, (ii) Paclitaxel (PTX), 5 mg/kg, (iii) compound 37b, 5 mg/kg, (iv) compound 37b, 10 mg/kg, (v) compound 48, 5 mg/kg, or (vi) compound 48, 10 mg/kg. When control animals (DMSO) began to appear tumor ulceration (25 days), all animals in the experiment were sacrificed and photographed. FIG. 7B are photographs of the tumor from sacrificed animals of different treatment groups after 25 days. FIG. 7C is a graph showing the tumor weight of xenograft tumors versus time after s.c. injection of DMSO, PTX, compound 37b, or compound 48. Data are shown as mean±SEM. * P≤0.05 versus DMSO group.
The cytotoxicity of 1,2,4,5-tetraoxanes 48 and 37b on cancer stem cell (CSC) model of HEY A8 CSCs and mouse xenograft ovarian tumors (FIG. 2) was examined. Nude mice were injected s.c. with HEYA8 CSC cells […] and randomly allocated to one of the six treatment groups (n=4): (i) DMSO, (ii) Paclitaxel (PTX), 5 mg/kg, (iii) compound 37b, 5 mg/kg, (iv) compound 37b, 10 mg/kg, (v) compound 48, 5 mg/kg, and (vi) compound 48, 10 mg/kg. When control animals (DMSO) began to appear tumor ulceration (25 days), all animals in the experiment were sacrificed and photographed. It is known that ovarian CSCs have resistance to Taxol, so Taxol was used as negative control.

MDA-MB-231 cells = assay: Ferroptosis inhibitor rescue (Fer-1, liproxstatin-1) in MDA-MB-231 cells; assay type: cell-based; settings: 24 h; for effect of Fer-1 on MDA-MB-231 cell death: Fer-1 50 μM
Method: FIG. 8A is a bar graph showing the effect of Fer-1 (50 μM) on MDA-MB-231 cells treated with compounds 37b, 37a, and 30b, respectively, at the indicated concentrations for 24 h. […], **P≤0.01, ***P≤0.001 versus non-pretreated cells, N.S., no statistically significant change. Data represent mean±SD, n=3 biologically independent samples. All P values were determined using two-tailed Student's t-test.
FIG. 8B is a bar graph showing the effect of Fer-1 (50 μM) on MDA-MB-231 cells treated with compounds 6b, 48, 30a, and 37f, respectively, at the indicated concentrations for 24 h. *P≤0.01, **P≤0.002, ***P≤0.001 versus non-pretreated cells. Data represent mean±SD, n=3 biologically independent samples. FIG. 8C is a bar graph showing the effect of Fer-1 and DFO on MDA-MB-231 cells treated with compounds 56 and 53, respectively, at the indicated concentrations for 24 h. *P≤0.01, **P≤0.002, ***P≤0.001 versus non-pretreated cells. All P values were determined using two-tailed Student's t-test.
FIG. 9 is a bar graph showing the effect of liproxstatin ([…]) on MDA-MB-231 cells treated with compounds 48 and 37b, respectively, at the indicated concentrations for 24 h. **P≤0.01 versus non-pretreated cells. Data represent mean±SD, n=3 biologically independent samples. All P values were determined using two-tailed Student's t-test.
Fer-1 was used to investigate the cell death pathway induced by the compounds described herein. Liproxstatin-1 was used to further confirm whether 48 and 37b triggered off ferroptosis in MDA-MB-231 cells.

bEnd.3 cells = assay: MTT viability assay, bEnd.3 cells; assay type: cell-based, mouse; settings: Mus musculus, BEND3, 48 h incubation, mean, n = 3, read-out: IC50 against bEnd.3 cells
Method: as §1

MDCK cells = assay: MTT viability assay, MDCK cells; assay type: cell-based, dog; settings: Canis lupus familiaris, MDCK, 48 h incubation, mean, n = 3, read-out: IC50 against MDCK cells
Method: as §1

Jurkat cells = assay: MTT viability assay, Jurkat cells; assay type: cell-based; settings: Homo sapiens, 48 h incubation, mean, n = 3, read-out: IC50 against Jurkat cells
HL-60 cells = assay: MTT viability assay, HL-60 cells; assay type: cell-based; settings: for IC50: Homo sapiens, HL-60
[3] = MTT, 48 h incubation, mean, n = 3, read-out: IC50 against T47D cells

Structure (SMILES) | hydroxyl radical (HKOH-1r fluorescence) [1] | IC50 (NIH3T3) [µM] | IC50 (T47D cells; [3]) [µM] | IC50 (T47D cells; Table 12b, read-out: IC50 T47D) [µM] | selectivity index (IC50 of NIH3T3 divided by IC50 on T47D) (T47D cells; Table 12b, value in bracket) | tolerability of regimens in tested animals [2] | abnormal behavior or weight loss during treatment period [2] | effect of liproxstatin-1 pretreatment on MDA-MB-231 cell death (MDA-MB-231 cells) | effect of Fer-1 on MDA-MB-231 cell death (MDA-MB-231 cells) | IC50 (MDCK cells) [µM] | further results
CC(C)(C)C1CCC2(CC1)OOC1(CCC(OC(=O)NCCC[P+](c3ccccc3)(c3ccccc3)c3ccccc3)CC1)OO2.[Br-] (stereo not shown) [Compound 37b, (3-((((12-(tert-butyl)-7,8,15,16-tetraoxadispiro[5.2.59.26]hexadecan-3-yl)oxy)carbonyl)amino)propyl)triphenylphosphonium bromide] | significant amount of hydroxyl radical was observed | 4.6 ± 1.9 | 0.62 | 0.6 ± 0.1 | (>7.6) | well-tolerated | no abnormal behavior or weight loss | prevented the cell death | subverted MDA-MB-231 cell death | 9.5 | IC50 (HepG2 cells; Homo sapiens, HepG2, MTT, 48 h incubation, mean, n = 3, read-out: IC50 against HepG2 cells): 0.7 µM; fold more cytotoxic than RKA182 for HepG2 cells (HepG2 cells; comparator RKA182): 36 fold; tumor growth compared with vehicle control ([2]; 5 mg/kg and 10 mg/kg, HEYA8 CSC xenograft, 25 days): effective in inhibiting tumor growth; IC50 (bEnd.3 cells): 5.2 µM
CC(C)(C)C1CCC2(CC1)OOC1(CCC(OC(=O)NCCC[N+](C)(Cc3ccccc3)Cc3ccccc3)CC1)OO2.[I-] (stereo not shown) [Compound 48, N,N-dibenzyl-3-((((12-(tert-butyl)-7,8,15,16-tetraoxadispiro[5.2.59.26]hexadecan-3-yl)oxy)carbonyl)amino)-N-methylpropan-1-aminium iodide] | significant amount of hydroxyl radical was observed | 29 ± 5.7 | 1.7 | 1.7 ± 0.3 | (>17) | well-tolerated | no abnormal behavior or weight loss | prevented the cell death | subverted MDA-MB-231 cell death | 28.2 | IC50 (Jurkat cells): 1 µM; IC50 (T47D cells; Table 13, experimental data, MTT, 48 hrs, n = 3, read-out: IC50 T47D): 1.7 ± 0.3 µM; selectivity index (IC50 of NIH3T3 divided by IC50 on T47D) (T47D cells; Table 13, value in bracket): (>17); IC50 (HL-60 cells; MTT, 48 h incubation, mean, n = 3, read-out: IC50 against HL-60 cells): 1.2 ± 0.9 µM; IC50 (HL-60 cells; Table 12b, read-out: IC50 HL-60): 1.2 ± 0.9 µM; IC50 (HL-60 cells; Table 13, experimental data, MTT, 48 hrs, n = 3, read-out: IC50 HL-60): 1.2 ± 0.9 µM; selectivity index (IC50 of NIH3T3 divided by IC50 on HL-60) (HL-60 cells; Table 13, value in bracket): (>24); fold more cytotoxic to HL-60 cells than OZ439 (HL-60 cells; comparator OZ439): at least 9 fold; fold more potent than RKA182 in HL-60 cells (HL-60 cells; comparator RKA182): 9 fold; tumor size ([2]; 10 mg/kg, HEYA8 CSC xenograft, 25 days): reduced the tumor size
